# “Also recorded” adds a separate entry of the source. Like-named read-outs stand apart in the source and are kept apart here.
# How the values were obtained:
# endogenous PXR = target: T1, endogenous PXR (Rattus norvegicus, UniProt Q9R1A7); conditions: hepatocytes
# T1 sequence (Q9R1A7 1-431): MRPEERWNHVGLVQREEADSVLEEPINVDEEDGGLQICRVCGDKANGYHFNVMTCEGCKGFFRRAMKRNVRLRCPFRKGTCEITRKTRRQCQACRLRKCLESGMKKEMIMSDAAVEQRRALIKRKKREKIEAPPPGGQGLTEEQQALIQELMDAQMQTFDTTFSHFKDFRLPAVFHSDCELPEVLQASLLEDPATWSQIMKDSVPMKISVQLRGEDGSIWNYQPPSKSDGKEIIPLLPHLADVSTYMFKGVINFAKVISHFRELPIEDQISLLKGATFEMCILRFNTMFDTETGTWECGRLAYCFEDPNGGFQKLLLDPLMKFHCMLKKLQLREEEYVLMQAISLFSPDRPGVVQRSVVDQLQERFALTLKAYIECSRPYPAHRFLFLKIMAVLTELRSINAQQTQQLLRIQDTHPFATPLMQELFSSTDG
# Description: (§1) The PCR-amplified sequences and target mutagenesis were confirmed by DNA sequencing.
# (§2) All compounds were purchased from Sigma.
# (§3) A panel of natural and synthetic steroid and nonsteroid compounds were tested for their ability to activate SXR and/or PXR in transfection-based assays using primary rat hepatocytes as recipient cells and the cellular promoters of the rat CYP3A23 gene or the human CYP3A4 gene as reporters.
# SXR [1] = target: T2, SXR (Homo sapiens, UniProt O75469)
# T2 sequence (O75469 1-434): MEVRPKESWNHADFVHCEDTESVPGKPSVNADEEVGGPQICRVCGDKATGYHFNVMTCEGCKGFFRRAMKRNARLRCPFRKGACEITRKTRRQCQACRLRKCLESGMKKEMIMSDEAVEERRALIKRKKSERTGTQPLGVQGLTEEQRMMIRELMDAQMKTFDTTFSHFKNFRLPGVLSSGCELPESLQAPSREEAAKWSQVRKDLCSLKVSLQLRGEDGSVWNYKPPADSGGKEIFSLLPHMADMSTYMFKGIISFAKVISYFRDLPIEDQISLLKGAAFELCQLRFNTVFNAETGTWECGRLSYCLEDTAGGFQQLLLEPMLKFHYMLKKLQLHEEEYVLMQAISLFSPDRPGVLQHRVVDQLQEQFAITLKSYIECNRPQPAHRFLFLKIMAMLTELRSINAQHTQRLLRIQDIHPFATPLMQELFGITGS
# T2 sequence (P19793 1-462 partner): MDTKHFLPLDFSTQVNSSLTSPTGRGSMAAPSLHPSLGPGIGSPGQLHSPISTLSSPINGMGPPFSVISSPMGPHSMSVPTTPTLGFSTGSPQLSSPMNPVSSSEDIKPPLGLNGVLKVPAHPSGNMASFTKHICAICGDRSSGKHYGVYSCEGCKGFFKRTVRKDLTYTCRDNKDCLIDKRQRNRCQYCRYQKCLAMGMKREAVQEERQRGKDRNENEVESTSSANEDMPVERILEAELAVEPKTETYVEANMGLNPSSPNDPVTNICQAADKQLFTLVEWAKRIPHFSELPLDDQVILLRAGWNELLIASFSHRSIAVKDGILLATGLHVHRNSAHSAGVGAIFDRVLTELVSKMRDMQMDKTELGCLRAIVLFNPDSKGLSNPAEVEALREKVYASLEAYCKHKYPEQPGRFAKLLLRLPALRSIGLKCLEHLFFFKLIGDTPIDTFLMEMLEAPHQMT
# Description: (§4) Thus, the protein coding region of SXR was PCR amplified and subcloned into NcoI and BamH1 sites of the vector pCDG1 (see Blumberg et al., supra). During this process the putative initiator Leu was converted to Met with a Kozak consensus sequence CCATGG.
# hGRα = target: T3, hGRα (Homo sapiens, UniProt P04150); experiment: Activation of hGRα on MTV-luc; format: cell-based; conditions: 50 μM (FIG. 7D; 50 mM in FIG. 5 legend)
# T3 construct: expressed in transfected cells
# T3 sequence (P04150 1-777): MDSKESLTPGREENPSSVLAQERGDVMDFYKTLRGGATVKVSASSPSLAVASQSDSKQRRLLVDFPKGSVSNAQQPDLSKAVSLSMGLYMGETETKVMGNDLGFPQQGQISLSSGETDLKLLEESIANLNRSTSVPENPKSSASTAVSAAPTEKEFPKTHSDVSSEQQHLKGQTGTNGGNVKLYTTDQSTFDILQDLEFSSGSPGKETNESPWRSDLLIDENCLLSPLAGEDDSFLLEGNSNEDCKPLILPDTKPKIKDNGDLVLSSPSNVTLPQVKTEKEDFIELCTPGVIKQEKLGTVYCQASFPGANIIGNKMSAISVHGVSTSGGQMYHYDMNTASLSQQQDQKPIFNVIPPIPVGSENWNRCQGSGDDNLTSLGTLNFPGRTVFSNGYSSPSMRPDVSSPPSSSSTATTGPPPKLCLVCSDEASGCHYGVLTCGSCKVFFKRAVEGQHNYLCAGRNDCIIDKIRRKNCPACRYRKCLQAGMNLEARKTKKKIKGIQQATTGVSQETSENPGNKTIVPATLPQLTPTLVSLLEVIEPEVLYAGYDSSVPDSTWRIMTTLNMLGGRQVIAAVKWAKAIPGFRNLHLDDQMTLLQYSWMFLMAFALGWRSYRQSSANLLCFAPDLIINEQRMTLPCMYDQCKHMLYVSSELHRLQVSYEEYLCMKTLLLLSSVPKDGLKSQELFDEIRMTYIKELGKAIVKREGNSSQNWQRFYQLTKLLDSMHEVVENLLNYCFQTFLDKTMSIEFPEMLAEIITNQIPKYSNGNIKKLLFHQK
# Description: FIG. 5 further illustrates the broad ligand specificity of SXR. […] 6β-hydroxylated, non-reduced, 5α and 5β reduced forms of corticosterone were tested for their ability to activate GAL-SXR on tk(MH100)4-luc and hGRa on MTV-luc at […].
# 6β-hydroxylated, non-reduced, 5α and 5β reduced forms of corticosterone were tested for their ability to activate GAL-hSXR on tk(MH100)4-luc (lefthand group of 5 columns) and hGRα on MTV-luc at 50 μM (righthand group of 5 columns). […] In each group of columns: column 1=solvent; column 2=corticosterone; column 3=5α-tetrahydrocorticosterone; column 4=5β-tetrahydrocorticosterone; and column 5=6β-OH-corticosterone.
# SXR [2] = target: T4, SXR (Homo sapiens, UniProt O75469); remark: listed apart in the source
# T4 sequence (O75469 1-434): T2 sequence (O75469 1-434)
# Description: as §1, §2, §3
# CYP3A11 gene = conditions: single dose 24 h before sacrifice
# Description: The animals were allowed free access to food and water at all times. […] When necessary, mice were treated with a single intraperitoneal injection of DEX (50 mg/kg), PCN (40 mg/kg), or CTZ (50 mg/kg).
# To detect specific transcripts, [^32P]-cDNA probes labeled by Random Primer Labeling Kit (Boringher) were hybridized to the membranes. The probe used to detect transgene contains both the SXR cDNA and the SV40 sequences. […] The filters were subsequently stripped and rehybridized with a murine glyceraldehyde-3-phosphate dehydrogenase (GAPDH) cDNA probe for RNA loading normalization.
# Tissues were harvested 24 h later and subjected to Northern blot analysis.
# SXR [3] = target: T2, SXR; experiment: Transfection-based reporter assay in CV-1 cells, GAL4-SXR or full-length SXR; design: Activation of SXR response elements (DR-3, DR-4, DR-5) by full-length SXR: dose or concentration left out as unconfirmed; conditions: for Activation of human SXR by compounds known to induce CYP3A4: 50 μM, tamoxifen 5 μM (FIG. 7A); for Activation of SXR in transfection-based assays: GAL4-SXR LBD chimera or full-length SXR, CV-1 cells, steroids at high doses, up to 50 mM [sic]; for Activation of SXR response elements (DR-3, DR-4, DR-5) by full-length SXR: cotransfection, panel of steroids as printed (FIG. 4)
# Description: as §4
compound,measurement,setting,value
"Cc1ccc2cc3c(ccc4ccccc43)c3c2c1CC3 [3MC, 3-methylcholanthrene]",Activation of CYP3A23 promoter reporter in the absence of SXR,endogenous PXR,fail to activate or behave as poor activators
"C[C@]12CC[C@@H](O)C[C@@H]1CC[C@@H]1[C@@H]2[C@@H](O)C[C@]2(C)[C@@H](C(=O)CO)CC[C@@H]12 [5α, 5α-tetrahydrocorticosterone]",Activation of GAL-SXR on tk(MH100)4-luc by corticosterone derivatives,SXR [1],effective SXR activators
same,Activation of hGRα on MTV-luc by corticosterone derivatives,hGRα,slightly active
"C[C@]12CCC(O)C[C@H]1CC[C@@H]1[C@@H]2[C@@H](O)C[C@]2(C)[C@@H](C(=O)CO)CC[C@@H]12 (stereo partly drawn) [5β, 5β-tetrahydrocorticosterone]",Activation of GAL-SXR on tk(MH100)4-luc by corticosterone derivatives,SXR [1],effective SXR activators
same,Activation of hGRα on MTV-luc by corticosterone derivatives,hGRα,completely inactive
C[C@]12C[C@H](O)[C@H]3[C@@H](C[C@@H](O)C4=CC(=O)CC[C@@]43C)[C@@H]1CC[C@@H]2C(=O)CO [6β-hydroxy corticosterone],Activation of hGRα on MTV-luc by corticosterone derivatives,hGRα,slightly active
CCCCC/C=C/C=C1/C(=O)C=C[C@@H]1C/C=C\CCCC(=O)O [15d-PGJ2],Activation of CYP3A23 promoter reporter by PPARγ ligands in the presence of SXR,SXR [2],fail to activate
"Clc1ccccc1C(c1ccccc1)(c1ccccc1)n1ccnc1 [CTZ, clotrimazole]",Induction of liver CYP3A11 expression in Alb-SXR transgenic mice,"CYP3A11 gene; RIF 5 mg/kg, BRL 20 mg/kg, troglitazone and ciglitazone 150 mg/kg by gavage, CTZ 50 mg/kg, PCN 40 mg/kg i.p.",higher level
same,Induction of liver CYP3A11 expression in wild type / nontransgenic mice,CYP3A11 gene; same doses as in transgenic mice,moderate level
same,"Activation of CYP3A23 promoter reporter with mutated DR-3 element (DR3/M1, DR3/M2)",SXR [2],abolished
same,Inducibility of CYP3A23 promoter reporter with DR-3 replaced by IR-6 element (DR3/IR6),SXR [2],rescueS the inducibility
"CC/C(=C(/CC)c1ccc(O)cc1)c1ccc(O)cc1 [DES, diethylstilbestrol]",Activation of human SXR by compounds known to induce CYP3A4,SXR [3],most potent activators
C[C@]12CCC(=O)C=C1CC[C@@H]1[C@@H]2[C@@H](O)C[C@]2(C=O)[C@@H](C(=O)CO)CC[C@@H]12 [aldosterone],Activation of SXR in transfection-based assays,SXR [3],inactive
same,"Activation of SXR response elements (DR-3, DR-4, DR-5) by full-length SXR",SXR [3],little response
C[C@]12C[C@H](O)[C@H]3[C@@H](CCC4=CC(=O)CC[C@@]43C)[C@@H]1CC[C@@H]2C(=O)CO [corticosterone],Activation of human SXR by compounds known to induce CYP3A4,SXR [3],most potent activators
same,Activation of SXR in transfection-based assays,SXR [3],most potent and efficacious activator; also recorded: activated
same,"Activation of SXR response elements (DR-3, DR-4, DR-5) by full-length SXR",SXR [3],among the best activators
C[C@]12CCC(=O)C=C1CC[C@@H]1[C@@H]2[C@@H](O)C[C@@]2(C)[C@H]1CC[C@]2(O)C(=O)CO [cortisol],"Activation of SXR response elements (DR-3, DR-4, DR-5) by full-length SXR",SXR [3],little response
C[C@]12CCC(=O)C=C1CC[C@@H]1[C@@H]2C(=O)C[C@@]2(C)[C@H]1CC[C@]2(O)C(=O)CO [cortisone],"Activation of SXR response elements (DR-3, DR-4, DR-5) by full-length SXR",SXR [3],intermediate activators; also recorded: intermediate group
O=c1oc2cc(O)ccc2c2oc3cc(O)ccc3c12 [coumestrol],Activation of human SXR by compounds known to induce CYP3A4,SXR [3],most potent activators
C[C@]12CCC(=O)C[C@@H]1CC[C@@H]1[C@@H]2CC[C@]2(C)[C@@H](O)CC[C@@H]12 [dihydrotestosterone],Activation of SXR in transfection-based assays,SXR [1],remarkably effective activators
same,"Activation of SXR response elements (DR-3, DR-4, DR-5) by full-length SXR",SXR [1],among the best activators
same,Activation of human SXR by compounds known to induce CYP3A4,SXR [1],activate
Oc1ccc([C@H]2COc3cc(O)ccc3C2)cc1 [equol],Activation of human SXR by compounds known to induce CYP3A4,SXR [3],activate
O=c1c(-c2ccc(O)cc2)coc2cc(O)cc(O)c12 [genistein],Activation of human SXR by compounds known to induce CYP3A4,SXR [3],activate
CCC1(c2ccccc2)C(=O)NC(=O)NC1=O [phenobarbital],Activation of CYP3A23 promoter reporter in the absence of SXR,endogenous PXR,fail to activate or behave as poor activators
same,Induction of CYP3A23 promoter reporter with co-transfection of SXR,SXR [2],significant induction
CC(=O)[C@H]1CC[C@H]2[C@@H]3CC=C4C[C@@H](O)CC[C@]4(C)[C@H]3CC[C@]12C [pregnenolone],Activation of CYP3A23 promoter reporter in the absence of SXR,endogenous PXR,fail to activate or behave as poor activators
same,Induction of CYP3A23 promoter reporter with co-transfection of SXR,SXR [2],significant induction
same,"Activation of SXR response elements (DR-3, DR-4, DR-5) by full-length SXR",SXR [3],among the best activators
CC(=O)[C@H]1CC[C@H]2[C@@H]3CCC4=CC(=O)CC[C@]4(C)[C@H]3CC[C@]12C [progesterone],Activation of CYP3A23 promoter reporter in the absence of SXR,endogenous PXR,fail to activate or behave as poor activators
CC(=O)S[C@@H]1CC2=CC(=O)CC[C@]2(C)[C@H]2CC[C@@]3(C)[C@@H](CC[C@@]34CCC(=O)O4)[C@H]12 [spironolactone],Activation of human SXR by compounds known to induce CYP3A4,SXR [1],activate
estrogen,Activation of SXR in transfection-based assays,SXR [3],activated
